Results as given in publication PMC11275179, “Superior Anticancer and Antifungal Activities of New Sulfanyl-Substituted Niclosamide Derivatives” (Biomedicines, 2024).
Values after ≈ are worked out from the molar mass of the structure shown. Values joined by “and” are separate entries in the source; they are usually repeats but may differ in a detail not shown here. Identical values can stand only once. Like-named read-outs stand apart in the source and are kept apart here.

Experiments:
[1] = system: M. mycetomatis MM55 strain; experiment: In vitro susceptibility testing (MTS), MM55 strain; format: cell-based, Madurella mycetomatis; details: for IC50: read-out: Antifungal activity IC50; for IC90: read-out: Antifungal activity IC90
Protocol: (§1) The antifungal activity of the compounds was tested against a geographically and genetically diverse set of M. mycetomatis isolates. These included the MM55 strain from Sudan, strains I1, I3, and […] from India, strain P1 from Mali, strain SO1 from Somalia, strain Peru72012 from Peru, and strain CBS247.48 whose country of origin was unknown. All isolates were originally obtained from patients and identified and maintained in the Erasmus Medical Centre, Rotterdam, The Netherlands. In vitro susceptibility testing was performed as reported previously. The only difference was that tetrazolium compound 3-(4,5-dimethylthiazol-2-yl)-5-(3-carboxymethoxyphenyl)-2-(4-sulfophenyl)-2H-tetrazolium salt (MTS) was used as a viability dye in endpoint reading instead of 2,3-bis-(2-methoxy-4-nitro-5-sulfophenyl)-2H-tetrazolium-5-carboxanilide salt (XTT).

M. mycetomatis strains = experiment: In vitro susceptibility testing (MIC), panel of eight strains; format: cell-based, Madurella mycetomatis; details: for MIC50: concentration at which 50% of the eight isolates were completely inhibited
Protocol: as §1

[2] = system: M. mycetomatis MM55 strain; experiment: In vivo activity in M. mycetomatis-infected G. mellonella larvae; parameters: species or system Galleria mellonella; d10 AUC / d10 ΔAUC: unit not given here; details: 20 µM; for d10 AUC: area under the survival curve; for d10 ΔAUC: versus control
Protocol: (§2) In vivo efficacy was determined in larvae of the greater wax moth Galleria mellonella. Since G. mellonella is an invertebrate, it is not subject to directive 2010/63/EU of the European law on animal testing. Larvae were housed in the dark in Petri dishes with Whatman paper. To determine the toxicity in G. mellonella larvae, test compounds were injected on three consecutive days at 24 h intervals in the last pro-leg of healthy larvae followed by monitoring of the survival for ten days. If no significant difference between the control and treated larvae was observed, the compound was considered nontoxic. Larvae were further used in infection studies to determine the in vivo activity of test compounds against M. mycetomatis according to our previously published protocol.

FLO-1 EAC cells = experiment: MTT proliferation assay, FLO-1 cells; format: cell-based; details: FLO-1, 72 h, read-out: Antiproliferative activity IC50, FLO-1
Protocol: (§3) The FLO-1, SK-GT-4, and THP-1 cell lines were a gift from Dr. Shrikant Anant’s laboratory. Cells were grown in 10% fetal bovine serum (Fisher Scientific#FB12999102, Pittsburgh, PA, USA) and 1% antibiotic/antimycotic agent (Corning, Tewksbury, MA, USA) in RPMI 1640 media mixed with […] HEPES, L-glutamine (Corning, MA, USA). The cell lines were grown in a 5% CO2 incubator at 37 °C and used below 15 passages for the experiments.
(§4) The proliferation assay used a 3-(4,5-dimethylthiazol-2-yl)-2,5-diphenyltetrazolium bromide (MTT) assay. Briefly, 5000 FLO-1 and SK-GT-4 cells were counted and seeded in each well in 96-well plates. Post 24 h of incubation, EAC cells were treated with multiple concentrations (0–10 μM) of niclosamide (Cayman chemical#10649, Ann Arbor, MI, USA) and its analogs. At respective time points, 10 μL of stock MTT reagent (Millipore Sigma, Bedford, MA, USA) (3 mg/mL) was added to each well and incubated for 1–2 h under the dark at 37 °C. After incubation, the purple formazan crystals were dissolved in equal volumes of DMSO, and the absorbance of the resulting clear solutions was recorded at 570 nm using a microplate reader. A CCK-8 (Abcam, Cat no. ab228554, Burlingame, CA, USA) assay was used for the THP-1 cells. Briefly, 5000 cells were plated in every well of a 96-well plate. After 24 h of plating, THP-1 cells were treated with niclosamide and compound 3a. After the respective time point, an equal amount of CCK-8 reagent was pipetted to the wells and incubated for one hour in an incubator, and finally, the absorbance was recorded at 450 nm. The percent change in the proliferation was calculated by comparing the cell viability of the treated groups to the untreated control cells.

SK-GT-4 EAC cells = experiment: MTT proliferation assay, SK-GT-4 cells; format: cell-based; details: SKGT4, 72 h, read-out: Antiproliferative activity IC50, SK-GT-4
Protocol: as §3, §4

[3] = system: Galleria mellonella larvae; experiment: Toxicity in healthy Galleria mellonella larvae; format: in vivo; details: 20 µM, 10 days
Protocol: as §2

Kinetic solubility = format: physicochemical; details: kinetic from dmso stock, aqueous buffer
Protocol: Kinetic solubility was tested using 10 mM stock solutions of test compounds in DMSO followed by dilution with an aqueous buffer to a final concentration of 250 µM and vortexed at 900 rpm for 24 h. Then, the samples were filtered and analyzed by UHPLC (Shimadzu Nexera X2, Milton Keynes, UK).

HepG2 hepatoma cells = experiment: HepG2 hepatotoxicity, resazurin assay; format: cell-based; details: 72 h, two independent experiments
Protocol: (§5) HepG2 hepatoma cells were used for hepatotoxicity studies. Cells were provided by ECACC with a certificate of analysis confirming STR profiling and were mycoplasma tested every time new stabilates were made. Cells were screened utilizing a resazurin-based fluorescence assay (λex = 540 nm, λem = 590 nm) in a 384-well plate format. HepG2 cells (1 × 10^5 cells/mL) were incubated with the compound in a 10-point, 1 in 3 dilution series from a top concentration of 100 µM, for 72 h. After the 72 h incubation period, resazurin (0.27 mM in a cell culture medium) was added and the plates were incubated for a further 3–4 h before the fluorescent signal was measured using PHERAstar (BMG Labtech, Ortenberg, Germany). IC50 values were calculated from two independent experiments.

[4] = HepG2 hepatotoxicity, resazurin assay; format: cell-based; details: human, HepG2 hepatoma cells, two independent experiments
Protocol: as §5

CHI logD = format: physicochemical; details: reversed-phase UHPLC
Protocol: CHI (chromatographic hydrophobicity index) logD was determined according to previously published methods. Test compounds were prepared as 0.5 mM solutions in 50:50 acetonitrile/water and analyzed by reversed-phase UHPLC (wavelength 254 nm). By plotting the retention time of a set of reference compounds against known CHI values, the CHI value of test compounds was calculated according to their retention time, and this was then further converted to CHI logD.

Microsomal clearance = format: in vitro ADME
Protocol: Liver microsomes were applied to study the microsomal clearance of test compounds. The test compound (0.5 µM) was incubated with female CD1 mouse liver microsomes (0.5 mg/mL, 50 mM potassium phosphate buffer, pH 7.4), and the reaction started with the addition of excess NADPH (8 mg/mL, 50 mM potassium phosphate buffer, and pH 7.4). Immediately, at time 0, then at 3, 6, 9, 15, and 30 min, an aliquot of the incubation mixture was removed and mixed with acetonitrile to stop the reaction. An internal standard (IS) was added to all samples, the samples were centrifuged to sediment precipitated protein, and the plates were then sealed prior to UPLC-MSMS analysis (Xevo TQ-S Micro, Waters^TM, Milford, MA, USA). An exponential decay fit was created from the response ratio (compound peak area/IS peak area) and incubation time, and subsequently, Clint (mL/min/mg protein) was calculated by multiplying the rate constant (k) of the exponential decay curve and incubation conditions (incubation volume/mg protein added).

[5] = Madurella mycetomatis, MM55STRAIN
[6] = Madurella mycetomatis, CBS247, strain CBS247.48, read-out: MIC, CBS247.48
[7] = Madurella mycetomatis, strain I1, read-out: MIC, I1
[8] = Madurella mycetomatis, strain I3, read-out: MIC, I3
[9] = Madurella mycetomatis, strain I11, read-out: MIC, I11
[10] = Madurella mycetomatis, strain MM55, read-out: MIC, MM55
[11] = Madurella mycetomatis, strain P1, read-out: MIC, P1
[12] = Madurella mycetomatis, strain Peru72012, read-out: MIC, Peru72012
[13] = Madurella mycetomatis, strain SO1, read-out: MIC, SO1

| Structure (SMILES) | IC50 [1, 5] [µM] | IC90 [1, 5] [µM] | MIC (M. mycetomatis strains; [6]) [µM] | MIC (M. mycetomatis strains; [7]) [µM] | MIC (M. mycetomatis strains; [8]) [µM] | MIC (M. mycetomatis strains; [9]) [µM] | MIC (M. mycetomatis strains; [10]) [µM] | MIC (M. mycetomatis strains; [11]) [µM] | MIC (M. mycetomatis strains; [12]) [µM] | MIC (M. mycetomatis strains; [13]) [µM] | MIC50 (M. mycetomatis strains; Madurella mycetomatis) [µM] | d10 AUC [2] | d10 Survival Corrected with Control ([2]; infected larvae, day 10) [%] | d10 ΔAUC [2] | IC50 (FLO-1 EAC cells) [µM] | IC50 (SK-GT-4 EAC cells) [µM] | further results |
| --- | --- | --- | --- | --- | --- | --- | --- | --- | --- | --- | --- | --- | --- | --- | --- | --- | --- |
| O=C(Nc1ccc(C(F)(F)F)cc1)c1cc(Cl)ccc1O [Compound 2e] | 0.9 ± 0.2 | 1.1 ± 0.2 | 2 (≈ 0.631 µg/mL) | 1 (≈ 0.316 µg/mL) | 1 (≈ 0.316 µg/mL) | 2 (≈ 0.631 µg/mL) | 2 (≈ 0.631 µg/mL) | 1 (≈ 0.316 µg/mL) | 1 (≈ 0.316 µg/mL) | 1 (≈ 0.316 µg/mL) | 1 (≈ 0.316 µg/mL) | 453.3 | 3.33 | 121.6 |  |  | MIC (M. mycetomatis strains; strain MM55, read-out: MIC, MM55): 1.0 µM (≈ 0.316 µg/mL) |
| CCc1ccc(NC(=O)c2cc(Cl)ccc2O)cc1 [Compound 2d] | 6.6 ± 2 | 8.4 ± 1.1 |  |  |  |  |  |  |  |  |  |  |  |  | 6.13 ± 0.96 | 7.1 ± 0.75 |  |
| O=C(Nc1ccc(S(F)(F)(F)(F)F)cc1)c1cc(Cl)ccc1O [Compound 2a, 5-Chloro-2-hydroxy-N-(4-pentafluorosulfanylphenyl)benzamide] |  | 1.9 ± 0.6 | 0.5 (≈ 0.187 µg/mL) | 0.5 (≈ 0.187 µg/mL) | 0.5 (≈ 0.187 µg/mL) | 0.5 (≈ 0.187 µg/mL) | 0.5 (≈ 0.187 µg/mL) | 0.5 (≈ 0.187 µg/mL) | 0.3 (≈ 0.112 µg/mL) | 0.5 (≈ 0.187 µg/mL) | 0.5 (≈ 0.187 µg/mL) | 445 | 13.33 | 113.3 | 1.62 ± 0.55 | 1.8 ± 0.17 | IC50 [1]: 0.3 ± 0.1 µM; Toxicity to non-infected G. mellonella larvae [3]: not toxic; solubility kinetic at 24 h (Kinetic solubility): 0.67 µM (≈ 0.25 µg/mL); IC50 (HepG2 hepatoma cells): 2.26 ± 0.31 µM; IC50 at 72 h [4]: 2.3 to 3 µM; d10 Survival ([2]; infected larvae, day 10): 26.7% and 26.67%; chromatographic logD (CHI logD): 3.9; half-life at 0.5 µM (Microsomal clearance; female, CD1, pH 7.4, mouse liver microsomes, read-out: Microsomal T ½): > 30 min; Microsomal Clearance (Microsomal clearance; mouse liver microsomes, 0.5 µM): 0.02 mL/min/mg Protein |
| O=C(Nc1cccc(S(F)(F)(F)(F)F)c1)c1cc(Cl)ccc1O [Compound 2c, 5-Chloro-2-hydroxy-N-(3-pentafluorosulfanylphenyl)benzamide] | 1.3 ± 0.7 | 2 ± 0.1 | 2 (≈ 0.747 µg/mL) | 1 (≈ 0.374 µg/mL) | 1 (≈ 0.374 µg/mL) | 2 (≈ 0.747 µg/mL) | 2 (≈ 0.747 µg/mL) | 0.5 (≈ 0.187 µg/mL) | 1 (≈ 0.374 µg/mL) | 1 (≈ 0.374 µg/mL) | 1 (≈ 0.374 µg/mL) | 346.7 | −3.33 | 15 | 1.38 ± 0.4 | 1.38 ± 0.45 | melting point: 197 °C |
